From US20150065440A1 (Progen Pharmaceuticals Limited, priority 2007, published 2015)

Assays:
[1] = tested on: HSV-2; assay: Anti-HSV screening assay (viral plaques), HSV-2; format: cell-based; details: 100 μg/mL, viral plaques relative to mock treated controls
Protocol: (§1) African green monkey kidney (GMK AH1) cells^46 were cultured in Eagle's minimum essential medium (EMEM) supplemented with 2% calf serum, 0.05% Primaton RL substance (Kraft Inc., Norwich, USA) and antibiotics. Human epidermoid carcinoma (HEp-2) cells were cultured in Dulbecco's modified EMEM (DMEM) supplemented with 10% fetal calf serum and antibiotics. […] The RSV strain A-2^50 was used. The RSV stock was prepared as described by Hallak et al.^51 and stored at −70° C. in the presence of 40% sucrose^52.
(§2) The viral infectivity (the plaque number-reduction) assay and the plaque size-reduction assay were carried out as described previously^17. […] Subsequently, the cells were washed with 2 mL of EMEM and overlaid with 1% methylcellulose solution in EMEM. The plaques were visualized by staining with crystal violet solution after 2 (HSV-2) or 3 (HSV-1) days of incubation at 37° C. […] When the compounds were screened for anti-HSV or anti-RSV activity, mixtures of 200 PFU of the virus and the test compound (100 μg/mL) in serum-free EMEM were incubated for 10 min at room temperature before addition to cells and during the entire period of viral infection of cells and the development of viral plaques. In the plaque size-reduction assay, the compounds were added to cells (in methylcellulose overlay medium) after 2 h period of virus infection of cells in the absence of the inhibitor. After 2-3 days of incubation at 37° C., the viral plaques were visualized by staining the cells with 1% solution of crystal violet. For each compound tested, the images of twenty neighboring plaques were captured using a Leica DC300 digital camera attached to a Leitz-Wetzlar Diavert microscope. The area of each plaque was determined using IM500 image software (Leica). Similar protocols were used for RSV, except that the assays were performed in HEp-2 cells and DMEM supplemented with 2% heat-inactivated fetal calf serum was used instead of EMEM.

[2] = tested on: HSV-2; assay: Virus inactivation assay, HSV-2; format: cell-based; details: for Virus-inactivating activity: viral plaques with compound-treated virus relative to mock-treated controls: 15 min at 37° C.
Protocol: Approximately 10^5 plaque-forming units of HSV-1 KOS321 or HSV-2 333 stain and specific concentrations of the test compound in 200 μL of serum-free EMEM were mixed and incubated at 37° C. for 15 min. The mixtures were diluted to the non-inhibitory concentrations of the test compound, and then subjected to the infectious titer determination as described under the viral plaque number-reduction assay. In case of RSV, the assay was carried out in similar manner using DMEM supplemented with 2% heat-inactivated fetal calf serum instead of EMEM. To evaluate the effect of a low pH value or the presence of cervical secretions; the virus (HSV-2 333) and compounds were diluted in a low pH buffer (4.5) or cervical secretions were added to the compound dilutions before mixing with the virus (HSV-2 333). The cervical secretions were prepared from cervical swabs generated from 3 different individuals. The swabs were rinsed with distilled water and centrifuged at 5000×g for 10 min. The supernatant was kept at −20° C. In the case of RSV, the assay was carried out in a similar manner using DMEM supplemented with 2% heat-inactivated fetal calf serum instead of EMEM.

[3] = tested on: RSV; assay: Anti-RSV screening assay (viral plaques); format: cell-based; details: 100 μg/mL, viral plaques relative to mock treated controls
Protocol: as §1, §2

[4] = tested on: HEp-2 cells; assay: Cytotoxicity assay, HEp-2; format: cell-based, Human; details: cell viability reduced by 50%
[5] = tested on: GMK AH1 cells; assay: Cytotoxicity assay, GMK AH1; format: cell-based, African green monkey; details: cell viability reduced by 50%
Protocol: The assay was performed in GMK AH1 cells that had been seeded in 96 well cluster plates and reached approximately 80-90% confluence at day 2 of culture. The cells were washed with EMEM and incubated for 24 h at 37° C. with 100 μL of serial two-fold dilutions of the test compound in serum-free EMEM. The effect of the test compound on cell viability was measured by using the tetrazolium-based CellTiter96 assay according to the manufacturer's protocol (Promega, Madison, Wis., USA).

[6] = tested on: rat aortic tissue; assay: Ex vivo angiogenic sprout assay (rat aortic angiogenesis assay); format: cell-based, Sprague Dawley rats
Protocol: Explants from rat aortas were prepared by a modification of protocols previously described^42-54. In this model, the rat aortic endothelium exposed to a three dimensional matrix of ECM-derived proteins (Matrigel™), switches to a microvascular phenotype, generating branching networks of microvessels.
Briefly, thoracic aortas were excised from 2- to 4-month old Sprague Dawley rats and trimmed of remaining fat and connective tissue. Great care was taken at every stage to reduce physical damage of the aorta. Tissue was transferred to complete EBM-2 media (Cambrex) containing 2% FCS and all Singlequots™ (Cambrex) reagents except for heparin. Meanwhile, Matrigel™ (BD Biosciences) was allowed to cool on ice and once in a liquid form, 180 μL was pipetted into 48-well tissue culture plates (Nunc). The plates were incubated at 37° C. for 30 min to allow Matrigel™ to solidify.
Aortas were prepared by cutting 1 mm ring sections and then being bisected. Aortic segments were then carefully placed on top on the Matrigel™ in the centre of each well and once orientated as required, 60 μL of extra Matrigel™ was placed on top and the plate was returned to the incubator for a further 20 min. Each well was then supplemented with 1.0 mL media in the absence (control) or presence of test compounds usually at two concentrations within the range of 1-50 μM, depending on the particular compound/experiment. Cultures were replenished as appropriate every 48 h and scoring of microvessels was carried out at various timepoints up to 8-10 days. The extent of microvessel sprouting was determined by employing a scoring system from 0-5, where 0=no microvessels to 5=diffuse angiogenesis as previously described^45. Sprouting vessels were photographed using the 4× objective with an Olympus C-7070 camera and an adaptor for the eyepiece.
In some instances, to determine the potential toxicity of compounds in this assay, the viability of the tissue was assessed by withdrawing the compound/media from the culture on day 6 or 7 and adding complete media with VEGF (typically 10 ng/mL) for up to an additional 7 days. In the absence of toxicity, the viable tissue should sprout microvessels in response to the exogenous growth factor.
The inhibitory effect of compounds of the present invention on angiogenesis was assayed using the angiogenic sprout/microvessel formation (rat aortic) assay described above. Embedding of the rat aortic tissue in Matrigel™ in the absence of any inhibitor (control) yielded extensive angiogenic sprouting (as a score of 5 indicates diffuse angiogenesis) as illustrated by FIG. 1.

Row | SMILES | Residual infectivity (%) HSV-2 [1] | Virus-inactivating activity: viral plaques with compound-treated virus relative to mock-treated controls ([2]; HSV-2, 1 μg/ml) | Virus-inactivating activity: viral plaques with compound-treated virus relative to mock-treated controls ([2]; HSV-2, 10 μg/ml) | Virus-inactivating activity: viral plaques with compound-treated virus relative to mock-treated controls ([2]; HSV-2, 100 μg/ml) | Residual infectivity (%) RSV [3] | Cytotoxicity CC50 HEp-2 [4] | Cytotoxicity CC50 GMK AH1 [5] | Virus-inactivating activity in the presence of human cervical secretions: viral plaques relative to mock-treated controls ([2]; HSV-2, cervical secretions diluted 1:2.2, 1 μg/ml) | Virus-inactivating activity in the presence of human cervical secretions: viral plaques relative to mock-treated controls ([2]; HSV-2, cervical secretions diluted 1:2.2, 10 μg/ml) | Virus-inactivating activity in the presence of human cervical secretions: viral plaques relative to mock-treated controls ([2]; HSV-2, cervical secretions diluted 1:2.2, 100 μg/ml) | Virus-inactivating activity at low pH: viral plaques relative to mock-treated controls ([2]; HSV-2, pH 4.5, 1 μg/ml) | Virus-inactivating activity at low pH: viral plaques relative to mock-treated controls ([2]; HSV-2, pH 4.5, 10 μg/ml) | Virus-inactivating activity at low pH: viral plaques relative to mock-treated controls ([2]; HSV-2, pH 4.5, 100 μg/ml) | % Inhibition of Angiogenesis (10 μM) ([6]; 10 μM) | inhibition at 10 µM ([6]; Rattus norvegicus)
1 | CCCCCCCCCCCCOC1OC(COS(=O)(=O)O)C(OS(=O)(=O)O)C(OS(=O)(=O)O)C1OC1OC(COS(=O)(=O)O)C(OS(=O)(=O)O)C(OC2OC(COS(=O)(=O)O)C(OS(=O)(=O)O)C(OC3OC(COS(=O)(=O)O)C(OS(=O)(=O)O)C(OC4OC(COS(=O)(=O)O)C(OS(=O)(=O)O)C(OS(=O)(=O)O)C4OS(=O)(=O)O)C3OS(=O)(=O)O)C2OS(=O)(=O)O)C1OS(=O)(=O)O [Compound 4, Dodecyl 2,3,4,6-tetra-O-sodium sulfonato-α-D-mannopyranosyl-(1→3)-2,4,6-tri-O-sodium sulfonato-α-D-mannopyranosyl-(1→3)-2,4,6-tri-O-sodium sulfonato-α-D-mannopyranosyl-(1→3)-2,4,6-tri-O-sodium sulfonato-α-D-mannopyranosyl-(1→2)-3,4,6-tri-O-sodium sulfonato-α-D-mannopyranoside] | 0.7% | 98.6% | 97.5% | 68.1% | 0% | >400 µg/mL | >400 µg/mL | – | – | – | – | – | – | – | –
2 | CC(C)CCCC(C)C1CCC2C3CCC4CC(OC5OC(COS(=O)(=O)O)C(OS(=O)(=O)O)C(OS(=O)(=O)O)C5OC5OC(COS(=O)(=O)O)C(OS(=O)(=O)O)C(OC6OC(COS(=O)(=O)O)C(OS(=O)(=O)O)C(OC7OC(COS(=O)(=O)O)C(OS(=O)(=O)O)C(OS(=O)(=O)O)C7OS(=O)(=O)O)C6OS(=O)(=O)O)C5OS(=O)(=O)O)CCC4(C)C3CCC12C [Compound 20, 3β-Cholestanyl 2,3,4,6-tetra-O-sodium sulfonato-α-D-mannopyranosyl-(1→3)-2,4,6-tri-O-sodium sulfonato-α-D-mannopyranosyl-(1→3)-2,4,6-tri-O-sodium sulfonato-α-D-mannopyranosyl-(1→2)-3,4,6-tri-O-sodium sulfonato-α-D-mannopyranoside] | 0% | 120.3% | 0.3% | 0% | 0% | 113 µg/mL | 110 µg/mL | 82.6% | 78.5% | 0.3% | 93.7% | 6.8% | 0.0% | – | –
3 | CC(C)CCC[C@@H](C)[C@H]1CC[C@H]2[C@@H]3CCC4CC(OCc5cn([C@@H]6O[C@H](COS(=O)(=O)[O-])[C@@H](O[C@H]7O[C@H](COS(=O)(=O)[O-])[C@@H](O[C@H]8O[C@H](COS(=O)(=O)[O-])[C@@H](OS(=O)(=O)[O-])[C@H](OS(=O)(=O)[O-])[C@H]8OS(=O)(=O)[O-])[C@H](OS(=O)(=O)[O-])[C@H]7OS(=O)(=O)[O-])[C@H](OS(=O)(=O)[O-])[C@H]6OS(=O)(=O)[O-])nn5)CC[C@]4(C)[C@H]3CC[C@]12C.[Na+].[Na+].[Na+].[Na+].[Na+].[Na+].[Na+].[Na+].[Na+].[Na+] (stereo partly drawn) [Compound 70, 4-(Cholestan-3-yl-oxymethyl)[1,2,3]triazol-1-yl 2,3,4,6-tetra-O-sodium sulfonato-α-D-glucopyranosyl-(1→4)-2,3,6-tri-O-sodium sulfonato-α-D-glucopyranosyl-(1→4)-1-deoxy-2,3,6-tri-O-sodium sulfonato-β-D-glucopyranoside] | – | – | – | – | – | – | – | – | – | – | – | – | – | 97% | –
4 | CCCCCCCCCCCCCCCCCC(=O)NCCCO[C@@H]1O[C@H](COS(=O)(=O)[O-])[C@@H](O[C@H]2O[C@H](COS(=O)(=O)[O-])[C@@H](O[C@H]3O[C@H](COS(=O)(=O)[O-])[C@@H](O[C@H]4O[C@H](COS(=O)(=O)[O-])[C@@H](OS(=O)(=O)[O-])[C@H](OS(=O)(=O)[O-])[C@H]4OS(=O)(=O)[O-])[C@H](OS(=O)(=O)[O-])[C@H]3OS(=O)(=O)[O-])[C@H](OS(=O)(=O)[O-])[C@H]2OS(=O)(=O)[O-])[C@H](OS(=O)(=O)[O-])[C@H]1OS(=O)(=O)[O-].[Na+].[Na+].[Na+].[Na+].[Na+].[Na+].[Na+].[Na+].[Na+].[Na+].[Na+].[Na+].[Na+] [Compound 128, 3-Stearamidopropyl 2,3,4,6-tetra-O-sulfo-α-D-glucopyranosyl-(1→4)-2,3,6-tri-O-sulfo-α-D-glucopyranosyl-(1→4)-2,3,6-tri-O-sulfo-α-D-glucopyranosyl-(1→4)-2,3,6-tri-O-sulfo-β-D-glucopyranoside, tridecasodium salt] | – | – | – | – | – | – | – | – | – | – | – | – | – | – | 65%
